Experimental data from PubChem BioAssay AID248 (DTP/NCI, 2004).
Several values for one entry are separate records, joined by “and”; a condition that tells them apart may be missing. Identical values can stand only once. Toxic doses and inconclusive results are not listed. Rule as the data show it: active = T/C of 150% or more; inactive = T/C below 125%.

System: L1210 leukemia ip in BDF1 mice, survival T/C
Test: NCI In Vivo Anticancer Drug Screen. Data for tumor model L1210 Leukemia (intraperitoneal) in B6D2F1 (BDF1) mice
Conditions: endpoint: mean survival time, higher = longer survival
Outline: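 Tumor was transplanted into mice, which were then dosed with test compound or vehicle alone. Survival was recorded for each group, and the treated figure was expressed relative to the control figure.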

[1] = dose: 100.0 mg/kg/injection, schedule: Q04DX003 (ip), vehicle: saline with Tween-80
[2] = dose: 200.0 mg/kg/injection, schedule: Q04DX003 (ip), vehicle: saline with Tween-80
[3] = dose: 400.0 mg/kg/injection, schedule: Q04DX003 (ip), vehicle: saline with Tween-80
[4] = dose: 100.0 mg/kg/injection, schedule: Q01DX001 (ip), vehicle: saline
[5] = dose: 200.0 mg/kg/injection, schedule: Q01DX001 (ip), vehicle: saline
[6] = dose: 400.0 mg/kg/injection, schedule: Q01DX001 (ip), vehicle: saline
[7] = dose: 100.0 mg/kg/injection, schedule: Q01DX009 (ip), vehicle: Klucel (hydroxypropylcellulose) (HPC)
[8] = dose: 100.0 mg/kg/injection, schedule: Q04DX002 (ip), vehicle: Klucel (hydroxypropylcellulose) (HPC)
[9] = dose: 100.0 mg/kg/injection, schedule: Q04DX003 (ip), vehicle: Klucel (hydroxypropylcellulose) (HPC)
[10] = dose: 200.0 mg/kg/injection, schedule: Q01DX009 (ip), vehicle: Klucel (hydroxypropylcellulose) (HPC)
[11] = dose: 200.0 mg/kg/injection, schedule: Q04DX002 (ip), vehicle: Klucel (hydroxypropylcellulose) (HPC)
[12] = dose: 200.0 mg/kg/injection, schedule: Q04DX003 (ip), vehicle: Klucel (hydroxypropylcellulose) (HPC)
[13] = dose: 400.0 mg/kg/injection, schedule: Q01DX009 (ip), vehicle: Klucel (hydroxypropylcellulose) (HPC)
[14] = dose: 400.0 mg/kg/injection, schedule: Q04DX002 (ip), vehicle: Klucel (hydroxypropylcellulose) (HPC)
[15] = dose: 400.0 mg/kg/injection, schedule: Q04DX003 (ip), vehicle: Klucel (hydroxypropylcellulose) (HPC)

Measured: T/C

O=C1NC(=S)S/C1=C\c1ccc(N(CCCl)CCCl)cc1
inactive: [1] 96 % of control | [2] 93 % of control | [3] 96 % of control

CN(C)c1ccc(C(C#N)=C(C#N)C#N)cc1
inactive: dose: 100.0 mg/kg/injection, schedule: Q01DX001 (ip), vehicle: acetone 96 % of control | dose: 100.0 mg/kg/injection, schedule: Q01DX009 (ip), vehicle: acetone 97 % of control | dose: 200.0 mg/kg/injection, schedule: Q01DX001 (ip), vehicle: acetone 99 % of control | dose: 200.0 mg/kg/injection, schedule: Q01DX009 (ip), vehicle: acetone 97 % of control | dose: 400.0 mg/kg/injection, schedule: Q01DX001 (ip), vehicle: acetone 94 % of control

C(Cc1ccccc1)=Nc1ccc(N=CCc2ccccc2)cc1
inactive: [4] 103 % of control | [5] 112 % of control | [6] 110 % of control

Cc1cccc2c(CCC(=O)O)c[nH]c12
inactive: [4] 100 % of control | [5] 94 % of control | [6] 94 % of control

CCOc1ccc(/C=N/NC(=O)c2ccccc2NC(=O)c2ccccc2Cl)cc1OC
inactive: dose: 100.0 mg/kg/injection, schedule: Q01DX001 (ip), vehicle: Klucel (hydroxypropylcellulose) (HPC) 93 % of control | [7] 97 % of control and 90 % of control | [8] 95 % of control and 103 % of control | [9] 92 % of control | dose: 200.0 mg/kg/injection, schedule: Q01DX001 (ip), vehicle: Klucel (hydroxypropylcellulose) (HPC) 98 % of control | [10] 90 % of control and 91 % of control | [11] 108 % of control and 92 % of control | [12] 97 % of control | dose: 400.0 mg/kg/injection, schedule: Q01DX001 (ip), vehicle: Klucel (hydroxypropylcellulose) (HPC) 93 % of control | [13] 94 % of control and 88 % of control | [14] 97 % of control and 92 % of control | [15] 92 % of control

CCCCOP(=O)(OCCCC)C(=O)N(CC)CC
inactive: [9] 112 % of control | [12] 101 % of control | [15] 93 % of control

CC(=O)Nc1ccc(/C=N\NC(=O)C2CC2)cc1
inactive: [9] 100 % of control | [12] 87 % of control | [15] 87 % of control

COC(=O)NC1C(C)C=CC(C)C1I (stereo not drawn)
inactive: dose: 100.0 mg/kg/injection, schedule: Q01DX009 (ip), vehicle: other 109 % of control | [1] 104 % of control | dose: 200.0 mg/kg/injection, schedule: Q01DX009 (ip), vehicle: other 96 % of control | [2] 98 % of control | dose: 400.0 mg/kg/injection, schedule: Q01DX009 (ip), vehicle: other 113 % of control | [3] 97 % of control

O=C1CCC/C1=C/c1ccco1
inactive: dose: 100.0 mg/kg/injection, schedule: Q04DX002 (ip), vehicle: saline with Tween-80 105 % of control | dose: 200.0 mg/kg/injection, schedule: Q04DX002 (ip), vehicle: saline with Tween-80 105 % of control | dose: 400.0 mg/kg/injection, schedule: Q04DX002 (ip), vehicle: saline with Tween-80 94 % of control

COc1ccc(COC(=O)Nc2ccc(Br)cc2)cc1
inactive: [7] 101 % of control | [10] 98 % of control | [13] 103 % of control

C(=NCC(CCN1CCOCC1)(CCN1CCOCC1)c1cccc2ccccc12)C(CCN1CCOCC1)(CCN1CCOCC1)c1cccc2ccccc12
inactive: dose: 25.0 mg/kg/injection, schedule: Q04DX003 (ip), vehicle: saline with Tween-80 90 % of control | dose: 50.0 mg/kg/injection, schedule: Q04DX003 (ip), vehicle: saline with Tween-80 100 % of control | [1] 89 % of control

c1ccc(C2CCN3c4ccc5ccccc5c4NCC23)cc1 (stereo not drawn)
inactive: [8] 107 % of control | [11] 93 % of control | [14] 93 % of control

CNC(=O)/C(=C\c1ccccc1)NC(C)=O
inactive: dose: 100.0 mg/kg/injection, schedule: Q01DX001 (ip), vehicle: saline with Tween-80 91 % of control | dose: 200.0 mg/kg/injection, schedule: Q01DX001 (ip), vehicle: saline with Tween-80 107 % of control | dose: 400.0 mg/kg/injection, schedule: Q01DX001 (ip), vehicle: saline with Tween-80 100 % of control
